In patent US20220370471A1, “COMPOSITION AND METHOD FOR TREATMENT OF HIPPOCAMPAL SYNAPSE DYSFUNCTION AND COGNITIVE DEFICITS IN ALZHEIMER'S DISEASE” (BOARD OF REGENTS, THE UNIVERSITY OF TEXAS SYSTEM, priority 2019, published 2022):
Square brackets hold non-standard residues; d marks the D form. Ends that are not written are not given here. Peptide text beside a SMILES is read from it. d2Nal = N[C@H](Cc1ccc2ccccc2c1)C(=O)O; Aib = CC(C)(N)C(=O)O

What was measured:
Ghsr1α/Drd1 = target: T1, Ghsr1α/Drd1 (Mus musculus, UniProt Q99P50); assay: Duolink PLA of Ghsr1α/Drd1 interaction in co-expressing HEK 293T cells; type: cell-based; conditions: oligomeric Aβ42 5 μM, 24 hours
T1 construct: Mouse full length Ghsr1α cDNA (NCBI Gene ID: 208188) was purchased from OriGene (MR226073); expressed in transfected cells; host or cells: HEK 293T
T1 sequence (Q99P50 whole entry): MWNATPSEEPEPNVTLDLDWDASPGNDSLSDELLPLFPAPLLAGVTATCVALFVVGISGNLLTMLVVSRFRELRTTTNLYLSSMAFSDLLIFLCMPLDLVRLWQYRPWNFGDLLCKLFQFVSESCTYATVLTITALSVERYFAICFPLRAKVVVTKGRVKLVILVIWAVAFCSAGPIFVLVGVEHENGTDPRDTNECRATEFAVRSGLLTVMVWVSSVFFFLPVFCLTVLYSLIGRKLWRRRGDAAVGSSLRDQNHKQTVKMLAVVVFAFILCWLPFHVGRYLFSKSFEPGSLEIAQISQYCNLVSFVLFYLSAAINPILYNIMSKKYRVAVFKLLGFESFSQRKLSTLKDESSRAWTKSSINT
Description: GHSR1α forms a complex with DRD1 to regulate DRD 1-mediated hippocampal synaptic strength and memory (8). In order to fully evaluate the influence of Aβ on GHSR1α, the inventor next examined whether oligomeric Aβ42 affects heterodimerization of GHSR1α and DRD1 by using HEK 293T cells co-expressing Ghsr1α and Drd1 (FIG. 2c, FIG. S2). After an incubation with oligomeric Aβ42 (5 μM) for 24 hours, the interaction between Ghsr1α and Drd1 determined by Duolink PLA was suppressed (FIGS. 2d-e), indicating the inhibitory effect of oligomeric Aβ42 on Ghsr1α/Drd1 heterodimerization. To test whether GHSR1α/DRD1 interaction was modulated in a clinical setting, the inventor examined hippocampal tissues from 5 patients with AD and compared with tissues from 5 healthy controls. […] Decreased Ghsr1α/Drd1 heterodimerization also occurred in 5×FAD mice, and this effect was exacerbated with age (FIGS. 2h-i). […] FlAsH-based FRET assay was performed to examine the effect of oligomeric Aβ42 ([…]) on agonist (SKF81297 100 μM)-induced Drd1 activity in HEK 293T cells expressing Drd1 with FlAsH in the intercellular loop 3 and ECFP in the C-terminus (Drd1^FlAsH/ECFP). […]
(§1) Duolink In Situ Proximity Ligation Assay (PLA). […] NIH Image J was used for PLA signal quantification. […]

Drd1 [1] = target: T2, Drd1 (Mus musculus, UniProt Q61616); assay: Duolink PLA and Co-IP of oligomeric Aβ42 with Drd1 in HEK 293T cells; type: binding; conditions: oligomeric Aβ42 24 hours, Drd1-expressing HEK 293T cells
T2 construct: expressed in transfected cells; host or cells: HEK 293T
T2 sequence (Q61616 whole entry): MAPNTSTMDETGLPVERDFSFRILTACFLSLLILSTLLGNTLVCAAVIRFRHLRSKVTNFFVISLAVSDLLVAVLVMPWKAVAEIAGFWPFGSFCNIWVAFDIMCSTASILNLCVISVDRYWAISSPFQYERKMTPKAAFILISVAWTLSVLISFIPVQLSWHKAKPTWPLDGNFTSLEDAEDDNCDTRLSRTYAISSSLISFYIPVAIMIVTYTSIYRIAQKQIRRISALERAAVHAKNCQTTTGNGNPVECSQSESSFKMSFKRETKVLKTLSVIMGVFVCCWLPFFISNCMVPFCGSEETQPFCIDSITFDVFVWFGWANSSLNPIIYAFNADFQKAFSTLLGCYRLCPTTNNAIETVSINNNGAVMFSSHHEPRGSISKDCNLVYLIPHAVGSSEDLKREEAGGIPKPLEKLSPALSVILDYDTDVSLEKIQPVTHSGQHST

Drd1 [2] = target: T3, Drd1 (Mus musculus, UniProt Q61616, INS245CCPGCC); assay: FlAsH-based FRET assay of Drd1 activity in HEK 293T cells; type: cell-based; conditions: oligomeric Aβ42 2 μM preincubation; SKF81297 100 μM
T3 construct: expressed in transfected cells; host or cells: HEK 293T
T3 sequence (Q61616 with tags, fused parts or gaps INS245CCPGCC): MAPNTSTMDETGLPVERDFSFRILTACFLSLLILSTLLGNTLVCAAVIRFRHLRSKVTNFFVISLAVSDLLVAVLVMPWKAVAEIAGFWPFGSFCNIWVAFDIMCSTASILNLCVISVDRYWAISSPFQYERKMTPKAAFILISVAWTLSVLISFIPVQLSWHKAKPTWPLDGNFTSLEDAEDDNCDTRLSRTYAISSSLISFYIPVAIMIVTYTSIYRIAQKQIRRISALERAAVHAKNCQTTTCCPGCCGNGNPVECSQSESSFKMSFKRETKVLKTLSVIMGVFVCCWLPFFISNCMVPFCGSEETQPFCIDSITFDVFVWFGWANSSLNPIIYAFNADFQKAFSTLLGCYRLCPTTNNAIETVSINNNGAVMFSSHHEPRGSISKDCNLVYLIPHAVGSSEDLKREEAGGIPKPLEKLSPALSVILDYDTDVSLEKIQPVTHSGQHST
Description: GHSR1α forms a complex with DRD1 to regulate DRD 1-mediated hippocampal synaptic strength and memory (8). In order to fully evaluate the influence of Aβ on GHSR1α, the inventor next examined whether oligomeric Aβ42 affects heterodimerization of GHSR1α and DRD1 by using HEK 293T cells co-expressing Ghsr1α and Drd1 (FIG. 2c, FIG. S2). After an incubation with oligomeric Aβ42 (5 μM) for 24 hours, the interaction between Ghsr1α and Drd1 determined by Duolink PLA was suppressed (FIGS. 2d-e), indicating the inhibitory effect of oligomeric Aβ42 on Ghsr1α/Drd1 heterodimerization. To test whether GHSR1α/DRD1 interaction was modulated in a clinical setting, the inventor examined hippocampal tissues from 5 patients with AD and compared with tissues from 5 healthy controls. […] Decreased Ghsr1α/Drd1 heterodimerization also occurred in 5×FAD mice, and this effect was exacerbated with age (FIGS. 2h-i). […]
FlAsH-based FRET. […] Fluorescence signals were monitored on microplate reader (BioTek Cytation 5) before and after the treatments. […] Area scanning read mode was used to correct artificial inaccuracies. The FRET ratio (FFlAsH/FECFP) was calculated according to equation as previously reported (69): […]

Ghsr1α = target: T4, Ghsr1α (Mus musculus, UniProt Q99P50, INS247CCPGCC); assay: FlAsH-based FRET assay of Ghsr1α activity in HEK 293T cells; type: cell-based; conditions: oligomeric Aβ42 2 μM, 5 minutes pre-incubation
T4 construct: Mouse full length Ghsr1α cDNA (NCBI Gene ID: 208188) was purchased from OriGene (MR226073); expressed in transfected cells; host or cells: HEK 293T
T4 sequence (Q99P50 with tags, fused parts or gaps INS247CCPGCC): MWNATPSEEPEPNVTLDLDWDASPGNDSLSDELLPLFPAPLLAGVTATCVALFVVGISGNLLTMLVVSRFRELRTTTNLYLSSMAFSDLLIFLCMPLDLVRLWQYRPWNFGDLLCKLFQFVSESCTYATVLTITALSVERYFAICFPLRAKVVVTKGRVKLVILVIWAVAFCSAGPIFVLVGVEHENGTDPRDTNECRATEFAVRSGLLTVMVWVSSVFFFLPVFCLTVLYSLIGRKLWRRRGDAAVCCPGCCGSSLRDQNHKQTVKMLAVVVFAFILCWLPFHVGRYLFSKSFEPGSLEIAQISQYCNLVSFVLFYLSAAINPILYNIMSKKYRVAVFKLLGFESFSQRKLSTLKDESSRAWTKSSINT
Description: FlAsH-based FRET was created by structural dynamics of Ghsr1α with FlAsH in the intercellular loop 3 and enhanced cyan fluorescent protein (ECFP) in the C-terminus (Ghsr1α^FlAsH/ECFP).
FlAsH-based FRET. […] The CCPGCC motif which has higher binding affinity for FlAsH was inserted in the third intracellular loop between Va1247 and Gly248 of Ghsr1α cDNA or between Thr245 and Gly246 of Drd1 cDNA. […] Fluorescence signals were monitored on microplate reader (BioTek Cytation 5) before and after the treatments. […] Area scanning read mode was used to correct artificial inaccuracies. The FRET ratio (FFlAsH/FECFP) was calculated according to equation as previously reported (69):
The terms a and b are correction factors for the two leakages mentioned above. a is the ratio of the direct emission of donor, ECFP at 535 nm, to its emission at 475 nm when excited at 425 nm which was calculated with cells transfected with pcDNA3-Ghsr1α^FlAsH/ECFP or pcDNA3-Drd1^FlAsH/ECFP only. b is the ratio of the direct emission of FlAsH at 535 nm when excited at 425 nm to its emission at 535 nm when excited at 500 nm which was calculated with FlAsH labeled untransfected cells.

Ghsr1α Δaa42-116 = target: T5, Ghsr1α Δaa42-116 (Mus musculus, UniProt Q99P50, DEL42-116); assay: Duolink PLA and Co-IP of oligomeric Aβ42 with Ghsr1α mutants in HEK 293T cells; type: binding; conditions: 5 μM oligomeric Aβ42, 24 hours; Duolink PLA, validated by Co-IP
T5 construct: Mouse full length Ghsr1α cDNA (NCBI Gene ID: 208188) was purchased from OriGene (MR226073); expressed in transfected cells; host or cells: HEK 293T
T5 sequence (Q99P50 with tags, fused parts or gaps DEL42-116): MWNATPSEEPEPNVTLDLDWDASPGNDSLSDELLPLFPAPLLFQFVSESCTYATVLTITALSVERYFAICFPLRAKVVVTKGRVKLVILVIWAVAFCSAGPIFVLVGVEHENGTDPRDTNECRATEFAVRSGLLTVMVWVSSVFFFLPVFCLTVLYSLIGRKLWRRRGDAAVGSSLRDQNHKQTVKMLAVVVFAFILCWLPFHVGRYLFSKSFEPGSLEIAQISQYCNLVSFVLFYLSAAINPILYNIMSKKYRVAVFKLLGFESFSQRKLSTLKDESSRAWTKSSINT
Text: Aβ3 physically interacts with GHSR1α. To determine whether GHSR1α expression is changed in the hippocampus in AD, the inventor performed immunohistochemical and membrane blotting assays in post-mortem hippocampal tissues from 4 subjects with AD and 4 non-demented healthy donors (non-AD). He observed increased GHSR1α expression in hippocampal tissues from patients with AD (FIGS. S1a-b and Table S1), which positively correlated with the amounts of soluble Aβ40 and Aβ42 in hippocampi (FIGS. S1c-d). […] Because Aβ binds to multiple proteins (14-16), the inventor next explored whether GHSR1α is an Aβ binding target. In order to examine the interaction between GHSR1α and AP, he labeled GHSR1α and Aβ with their specific antibodies and ran Duolink proximity ligation assay (PLA), which is a sensitive method to visualize and quantify direct protein interactions in situ (17), on hippocampal tissues from 4 subjects with AD and 4 healthy donors. The inventor observed Aβ3/GHSR1α complexes in hippocampi from patients with AD (FIGS. 1a-b). […] HEK 293T cells expressing full-length mouse Ghsr1α or its mutants were exposed to 5 μM oligomeric Aβ42 for 24 hours followed by Duolink PLA to detect Aβ/Ghsr1α complexes. […]
as §1

DRD1 [3] = target: DRD1 (Homo sapiens, UniProt P21728); conditions: cited from earlier work
Chain of DRD1 (P21728 whole entry, species assumed): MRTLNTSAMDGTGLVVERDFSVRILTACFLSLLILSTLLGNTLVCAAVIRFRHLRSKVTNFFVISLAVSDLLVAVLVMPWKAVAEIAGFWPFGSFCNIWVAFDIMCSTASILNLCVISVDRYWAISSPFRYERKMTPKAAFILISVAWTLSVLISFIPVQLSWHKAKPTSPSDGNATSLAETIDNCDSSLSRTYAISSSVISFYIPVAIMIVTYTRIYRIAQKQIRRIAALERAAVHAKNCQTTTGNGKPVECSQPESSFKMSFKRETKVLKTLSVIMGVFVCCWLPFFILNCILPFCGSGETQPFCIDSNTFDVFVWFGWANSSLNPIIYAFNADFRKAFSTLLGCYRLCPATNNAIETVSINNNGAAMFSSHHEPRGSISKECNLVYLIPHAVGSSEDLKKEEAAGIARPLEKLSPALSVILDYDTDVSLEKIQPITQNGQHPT

hippocampal neurons = assay: Synaptic density (vGLUT1/PSD95) in cultured hippocampal neurons; type: cell-based, mouse; conditions: for Aβ-induced synaptic loss / synaptic density / synaptogenic effect, agonist alone: 1 μM ipamorelin or capromorelin; for Aβ-induced synaptic loss / synaptic density: alone or + 2 μM SKF81297
Description: Immunocytochemistry. […] NIS element software was used for image analysis. “Objective Count” dialog was used for intensity measurement. […] The overlapped dots represent synapses.
Primary hippocampal neuron culture. Hippocampal neuron cultures were prepared as previously described (15). In brief, mouse hippocampi were dissected from postnatal day 0-1 pups in cold HBSS. Cells were dissociated by using 0.025% trypsin at 37° C. for 15 minutes, followed by 10 times homogenization in ice cold DMEM. Dissociated cells were then passed through a 100 μm cell strainer (Corning) and centrifuged for 5 minutes at 210×g. The pellet was gently resuspended in neuron culture medium (Neurobasal A with 2% B27 supplement, 0.5 mM L-glutamine, Invitrogen) and plated on poly-D-lysine (Sigma-Aldrich) coated Lab-Tek chamber slides (Nunc, 177445) with appropriate densities.
Agonist treatment on primary cultured neurons. At 14 days in vitro (DIV14) hippocampal neurons were exposed to the synthetic growth hormone secretagogue receptor agonist MK0677 (Tocris, #5272, 1.5 μM) the dopamine D1-like receptor agonist SKF81297 (Sigma-Aldrich, #S143, 2 μM) or a mixture of MK0677 and SKF81297 for 5 minutes. The exposure was followed by immunostaining to examine the effects of Ghsr1α/Drd1 co-activation on Aβ induced synaptic loss or Ghsr1α/Drd1, Aβ/Ghsr1α interaction as described in previous sections.

[4] = system: hippocampal CA3-CA1 pathway; assay: Long-term potentiation (fEPSP) in hippocampal slices; conditions: MK0677 1.5 μM, SKF81297 2 μM, alone or in combination
Description: For electrophysiological experiments, mice were anesthetized with isoflurane and decapitated. […] Slices were allowed to rest for 30 minutes after being transferred to the recording chamber before recordings began. Recordings of local field potentials (LFPs) were performed on an Axon Multiclamp 700B amplifier (Molecular Devices), and data were acquired and analyzed using AxoGraph X (AxoGraph Scientific). A tungsten concentric bipolar microelectrode (World Precision Instruments), and a recording glass electrode (1.5 MS2) filled with recording ACSF, were placed approximately 200 μm apart in the Schaffer collateral-commissural pathway in the CA1 region of the hippocampus. Pulses were delivered in 30 seconds intervals. Before baseline recordings commenced, input-output curves were taken, using 25-150 μA stimulation currents in 25 μA steps. Three sweeps were sampled at each stimulation intensity and averaged to represent the voltage response at each step. Recordings of baseline responses lasted for at least 40 minutes. Stimulation intensity was set to approximately 40% of the minimum intensity required to evoke the maximum response (based on the input-output curve). The stimulation intensity was kept consistent throughout the duration of the experiment. […] LTP was induced using a theta burst stimulation (TBS) protocol consisting of 10 bursts (5 pulses at 100 Hz) repeated at 5 Hz delivered two times 30 seconds apart. After LTP induction, LFPs were recorded for an additional 60 minutes. The slope of the field excitatory postsynaptic potential (fEPSP) was measured in Axograph scientific software and sweeps were averaged in bins of 5 for both the baseline and post LTP induction periods. Changes in LFPs are expressed as percentage change from the averaged baseline values.

Aβ/Ghsr1α complex = target: T6, Aβ/Ghsr1α complex (Mus musculus, UniProt Q99P50); assay: Duolink PLA of Aβ/Ghsr1α complex in cultured hippocampal neurons; type: cell-based; conditions: oligomeric Aβ42 1 μM, 24 hours; 1.5 μM MK0677, 2 μM SKF81297, or in combination
T6 construct: endogenous in cells; host or cells: primary mouse hippocampal neurons; Aβ42 peptide purchased (GenicBio, A-43-T-1000)
T6 sequence (Q99P50 whole entry): as the sequence (Q99P50 whole entry) above
T6 sequence (Q61616 whole entry, further chain): as the sequence (Q61616 whole entry) above
Text: (§2) Duolink In Situ Proximity Ligation Assay (PLA). […] PLA analysis was referred to previous report (66 67). NIH Image J was used for PLA signal quantification.
(§3) Agonist treatment on primary cultured neurons. […] The exposure was followed by immunostaining to examine the effects of Ghsr1α/Drd1 co-activation on Aβ induced synaptic loss or Ghsr1α/Drd1, Aβ/Ghsr1α interaction as described in previous sections.

Ghsr1α/Drd1 complex = target: T7, Ghsr1α/Drd1 complex (Mus musculus, UniProt Q61616+Q99P50); assay: Duolink PLA of Ghsr1α/Drd1 complex in cultured hippocampal neurons; type: cell-based; conditions: oligomeric Aβ42 1 μM, 24 hours; 1.5 μM MK0677, 2 μM SKF81297, or in combination
T7 construct: endogenous in cells; host or cells: primary mouse hippocampal neurons (P0-1, DIV14)
T7 sequence (Q99P50 whole entry): as the sequence (Q99P50 whole entry) above
T7 sequence (Q61616 whole entry): as the sequence (Q61616 whole entry) above
Text: as §2, §3

5×FAD mice = conditions: systemic ghrelin treatment; cited from earlier work

Molecule: oligomeric Aβ42: Aβ42 peptide (GenicBio) incubated at 4° C. for 24 hours to prepare oligomers
- interaction between Ghsr1α and Drd1 (Duolink PLA) (Ghsr1α/Drd1): suppressed
- Aβ/DRD1 complexes (Drd1 [1]): not observed
- impact on agonist-induced Drd1 activation (Drd1 [2]): no impact
- impact on FRET ratio in vehicle-treated cells (Ghsr1α; no agonist): no impact
- effect on agonist-induced Ghsr1α activation (Ghsr1α; then MK0677 50 μM): suppressed
- interaction with Ghsr1α mutant devoid of aa42-116 (Ghsr1α Δaa42-116): no interaction

Molecule: Oc1cc2c(cc1O)[C@H]1c3ccccc3CN[C@@H]1CC2 (racemic) [dihydrexidine]
- binding to DRD1 / DRD2 (DRD1 [3]): much weaker binding affinity

Molecule: CC(C)(N)C(=O)N[C@@H](Cc1c[nH]cn1)C(=O)N[C@H](Cc1ccc2ccccc2c1)C(=O)N[C@H](Cc1ccccc1)C(=O)N[C@@H](CCCCN)C(N)=O [ipamorelin] (H-[Aib]H[d2Nal][dF]K-NH2)
- Aβ-induced synaptic loss / synaptic density (hippocampal neurons; oligomeric Aβ42 1 μM, 24 hours): could ameliorate
- synaptogenic effect, agonist alone (hippocampal neurons; without oligomeric Aβ42): comparable synaptogenic effect with ghrelin

Molecule: Oc1cc2c(c(Cl)c1O)CCNCC2c1ccccc1 (stereo not shown) [SKF81297]
- stimulus-evoked hippocampal LTP in 5×FAD slices ([4]; slices from 4 month-old 5×FAD mice): no effect
- hippocampal LTP in non-Tg slices ([4]; slices from 4 month-old non-Tg mice): no effect
- synaptic density / oligomeric Aβ42-induced synapse loss (hippocampal neurons; oligomeric Aβ42 1 μM, 24 hours, 1.5 μM MK0677, 2 μM SKF81297, or in combination): failed to alleviate
- synaptic density, agonist alone (hippocampal neurons; without oligomeric Aβ42, MK0677 at doses greater than 1.5 μM, SKF81297 2 μM): increased synaptic density
- Aβ/Ghsr1α complex formation (Aβ/Ghsr1α complex): not MK0677 or SKF81297 alone
- Ghsr1α/Drd1 complex formation (Ghsr1α/Drd1 complex): not the agonists alone

Molecule: ghrelin: the natural ligand of GHSR1α (GSSFLSPEHQRVQQRKESKKPPAKLQPR; ends and bridges not checked; UniProt Q9UBU3 24-51, looked up)
- hippocampal Aβ load in 5×FAD mice (5×FAD mice): did not affect hippocampal Aβ load

Molecule: CN1N=C2CCN(C(=O)[C@@H](COCc3ccccc3)NC(=O)C(C)(C)N)C[C@@]2(Cc2ccccc2)C1=O [capromorelin]
- Aβ-induced synaptic loss / synaptic density (hippocampal neurons; oligomeric Aβ42 1 μM, 24 hours): could ameliorate
- synaptogenic effect, agonist alone (hippocampal neurons; without oligomeric Aβ42): comparable synaptogenic effect with ghrelin

Molecule: Oc1cc2c(cc1O)C(c1ccccc1)CNCC2 (stereo not shown) [SKF38393]
- binding to DRD1 / DRD2 (DRD1 [3]): selectively bind DRD1
